# Values quoted from earlier work in US8637310B2, “Use of a rock inhibitor to sustain primary human keratinocytes in a proliferative state” (The United States of America, as represented by the …, priority 2008, dated 2014).
# System: airway epithelial cells
# Settings: Moore et al. 2004; cited from earlier work
smiles,measurement,value
O=S(=O)(c1cccc2cnccc12)N1CCCNCC1 [HA 1077],effect on airway epithelial cells,"induces membrane ruffling, loss of actin stress fibers and apoptosis"
